Test results: patent publication US20110091375A1, “USE OF THE COMBINATION COMPRISING TEMOZOLOMIDE AND TNF-ALPHA FOR TREATING GLIOBLASTOMA” (THE UNIVERSITY OF CHICAGO, priority 2004, published 2011)

How the values were obtained:
[1] = LD50 of IP TMZ; parameters: species or system mice; conditions: mouse, in vivo
[2] = system: U87 cells; test: Flow cytometric analysis of apoptosis (fractional DNA content, annexin V binding); format: cell-based, human; conditions: fractional DNA content, TMZ 100 μM
Description: Fractional DNA content: U87 cells (10^5) were plated overnight at 37° C. with 5% CO2. The cells were then treated with TNFα (10 ng/mL) and/or TMZ (100 μM). At 72 h the cells were washed in PBS and fixed in ice-cold 70% (v/v) ethanol. The cells were washed twice and incubated in RNase (1 mg/mL) for 30 m at 37° C., then incubated in propidium iodide (PI) solution (100 ug/mL) for […] at 4° C. Flow cytometric analysis was performed on a FACSort instrument (Becton Dickinson Immunocytometry Systems, San Jose, Calif.), and the data were analyzed using the CellQuest software (Becton Dickinson).
Annexin V binding (van Engeland, M. et al. (1998) Cytometry 31(1):1-9): At 72 h cells were washed in PBS and incubated in the dark for 15 m with binding buffer containing 5 μl of Annexin V-FITC and 5 μl of PI (Annexin V-FITC apoptosis detection kit II). The data was analyzed by Flowjo analysis software (Tree Star Inc., Ashland, Oreg.).
Cells were either un-transfected or co-transfected with pRC-CMV-p65 or pRC-CMV in the presence of a GFP plasmid at a ratio of 4:1. Under these conditions, cells expressing GFP also expressed the co-transfected plasmid (Tang, F. et al. (2002) Mol Cell Biol 22:8571-8579). Cells were then left untreated or treated as described in the figure legends. At 72 h cells were washed in PBS and incubated in the dark for 15 m with binding buffer containing 5 μl of Annexin V-FITC and 5 μl of Propidium iodide (PI). In transfected cells, annexin V binding was assessed in GFP positive cells. Data was analyzed by Flowjo analysis software (Tree Star Inc., Ashland, Oreg., USA) as described in U.S. Provisional Application No. 60/604,251 (Yamini, B. et al. (2004) Cancer Res 64:6381-6384).

[3] = system: IκBα; test: TNFα-induced IκBα degradation and phosphorylation (Western blot / kinase assay); format: cell-based, human
Description: Cells were then washed with 10 mL ice-cold PBS, scraped from the dish, and pelleted by centrifugation at 1000 rpm for 5 m at 4° C. Cell pellets were resuspended in 400 μl of ice-cold buffer A (10 mM HEPES, pH 7.9; 10 mM KCl; 0.1 mM EDTA; 1 mM DTT; 0.5 mM phenylmethysulfonylfluoride [PMSF]; 1 μg/mL leupeptin; 5 μg/mL aprotinin) and allowed to swell on ice for 15 m. Following the addition of 25 μl of 10% NP-40, the suspension was vortexed for 10 s and centrifuged at 14,500 rpm for 1 m at 4° C. Nuclei were resuspended in 50 μl of ice-cold buffer B (20 mM HEPES, pH 7.9; […]; 1 mM EDTA; 1 mM DTT; 1 mM PMSF; 25% glycerol; 1 μg/mL leupeptin; 5 μg/mL aprotinin) and incubated on ice for 15 m. The nuclear suspension was then centrifuged at 14,500 rpm for 5 m at 4° C. and the supernatant containing the nuclear proteins was transferred to a clean tube. Protein concentrations for each sample were determined by the Bradford method (Bio-Rad, Richmond, Calif., USA) and were adjusted to 2 μg/μl by the addition of buffer B.
20 μg of whole U87 cell (or nuclear) lysate was subjected to sodium dodecyl sulfate (SDS)-polyacrylamide gel electrophoresis (PAGE). Following electro-transfer, Immobilon-P membranes (Millipore Corp. Burlington, Mass., USA.) were probed with primary polyclonal antibody against IκBα, phospho-Ser32-IκBα, SAPK/JNK, phospho-Thr183/Tyr185-SAPK/JNK, p65, phospho-Ser536-p65 (Cell Signaling Technology Inc. Beverly, […]., USA) diluted 1:1000 overnight at 4° C. Anti-rabbit IgG HRP-linked secondary antibody (Cell Signaling Technology) was diluted 1:1000 in blocking buffer and applied for 1 h at room temperature. Immunoreactive bands were detected by SuperSignal enhanced chemiluminescence (ECL) (Pierce, Rockford, Ill., USA) and exposed to Kodak X-Omat film.
IκK was immunoprecipitated from treated U87 cell extracts with anti-IKKβ antibody, (Santa Cruz Biotechnology, Santa Cruz, Calif., USA). […] Kinase activity was quantified using a Phosphoimager and Equal protein loading determined by immunoblotting with anti-IκKβ antibody (Upstate USA, Charlottesville, Va., USA). […]

[4] = system: U87 cells; test: U87 cell viability (Trypan Blue dye exclusion, MTS); format: cell-based, human; conditions: 10 ng/mL TNFα and/or 100 μM TMZ
Description: Trypan Blue dye exclusion method was employed. 10^4 U87 cells were plated and incubated at 37° C. overnight. Subsequently, the cells were contacted with media containing TNFα (10 ng/mL) and/or TMZ (100 μM), incubated for 3 h, and washed. […] All of the studies were performed in triplicate.

Cn1nnc2c(C(N)=O)ncn2c1=O [TMZ, temozolomide]
LD50 [1]: ~500 mg/kg | cell cycle distribution [2]: increase in the percentage of cells in G2/M phase | reduction of TNFα-induced phosphorylation of IκBα ([3]; TMZ pretreatment, at 5 m): 50% | degradation of IκBα ([3]; at 15 m, TNFα with or without TMZ pretreatment): reduced TNFα-induced degradation | effect on U87 cell viability [4]: Minimal effects
